{"source": "patent US20240294529A1", "about": "“6H-IMIDAZO[1,2-A]PYRROLO[2,3-E]PYRIDINE DERIVATIVES FOR USE IN THERAPY” (SANOFI, priority 2021, published 2024)", "key": {"hNur77": {"target": "T1, hNur77 (Homo sapiens, UniProt P22736)", "T1 construct": "The pFR-Luc (Gal4 UAS luciferase) reporter sits in the same cells, and expression is induced by doxycycline", "T1 sequence (P22736 360-598 limits assumed)": "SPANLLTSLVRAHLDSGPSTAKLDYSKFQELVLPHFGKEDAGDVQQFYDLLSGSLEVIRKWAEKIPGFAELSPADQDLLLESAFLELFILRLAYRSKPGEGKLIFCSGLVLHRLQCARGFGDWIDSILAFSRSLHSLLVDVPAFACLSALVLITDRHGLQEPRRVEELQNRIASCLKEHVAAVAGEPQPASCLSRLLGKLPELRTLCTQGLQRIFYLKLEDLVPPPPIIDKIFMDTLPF", "assay": "Activity on HEK-Nur77 modulation (Gal4-DBD luciferase reporter in stable HEK293 cells)", "format": "cell-based", "conditions": "24 hours with compound", "experimental": "Stable HEK293 cells expressing Gal4-DBD-FL-NOT, -hNur77, -hNOR1 and Pfr-Luc were obtained by limit dilution. HEK cells were grown in 75 cm^2 flask in DMEM high glucose 30-2002™ containing 10% calf serum, hygromycin at a content of 250 μg/ml, doxycyclin at a content of 2 μg/ml (to induce expression) and 0.4 mg/ml of penicillin. After one week in culture, cells were harvested by trypsinization then plated onto 96 well dishes at the density of 20,000 cell per well in 75 μl of culture medium. After 24 hours compounds were added (25 μl per well) at different concentration for further 24 hours. The medium was removed and measurement was performed by adding 50 μl of Steadyglo (Promega, E2510) with 50 μl PBS per well for 15 minutes and plates were read using microplate luminescent reader."}, "Nurr1": {"target": "T2, Nurr1 (Mus musculus, UniProt Q06219)", "T2 construct": "N2A cells obtained from ATCC were stably transfected with NBRE8x (50-AAGGTCA-30) in tandem coupled with luciferase reporter gene; host or cells: N2A neuroblastoma cells", "T2 sequence (Q06219 whole entry)": "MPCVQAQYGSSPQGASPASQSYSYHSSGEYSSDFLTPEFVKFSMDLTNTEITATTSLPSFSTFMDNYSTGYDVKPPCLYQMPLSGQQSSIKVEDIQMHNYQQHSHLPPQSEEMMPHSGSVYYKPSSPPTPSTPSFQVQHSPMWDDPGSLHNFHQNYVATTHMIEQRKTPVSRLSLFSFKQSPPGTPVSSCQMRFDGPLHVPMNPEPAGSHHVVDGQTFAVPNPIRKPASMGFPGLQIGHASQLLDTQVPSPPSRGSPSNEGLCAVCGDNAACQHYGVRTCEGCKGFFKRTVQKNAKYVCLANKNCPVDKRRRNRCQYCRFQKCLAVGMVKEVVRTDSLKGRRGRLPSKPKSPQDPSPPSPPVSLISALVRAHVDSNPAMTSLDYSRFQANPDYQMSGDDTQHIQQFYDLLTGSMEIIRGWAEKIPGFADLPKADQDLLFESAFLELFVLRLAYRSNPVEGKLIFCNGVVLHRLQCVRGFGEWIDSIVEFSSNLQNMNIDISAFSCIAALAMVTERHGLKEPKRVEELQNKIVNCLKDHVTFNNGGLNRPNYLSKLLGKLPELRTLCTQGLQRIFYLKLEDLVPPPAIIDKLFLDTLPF", "assay": "Activity on neuroblastomas cell lines - Nurr1 modulation (N2A cells, NBRE8x luciferase reporter)", "format": "cell-based", "conditions": "N2A cells stably transfected with NBRE8x-luciferase, 24 hours with compound; read-out: EC50 activity, Nurr1 modulation in N2A neuroblastoma cells", "experimental": "N2A cells obtained from ATCC were stably transfected with NBRE8x (50-AAGGTCA-30) in tandem coupled with luciferase reporter gene. Each NBRE sequence was separated with 5 nucleotides. N2A were grown in 75 cm^2 flask in DMEM containing 10% calf serum, 4.5 g/L glucose and 0.4 mg/ml geneticin. After one week in culture cells were harvested by trypsinization (0.25%, 30 minutes) then plated onto 96 well dishes at the density of 60,000 cell per well in 75 μl of DMEM without phenol red containing 4.5 g/l glucose, 10% lipid free serum from Hyclone. After 24 hours compounds were added (25 μl/well) at different concentration for further 24 hours. Measurement is performed by adding 100 μl of Steadylite per well for 30 minutes and plates are read using microplate […] reader."}}, "data": [{"compound": "Clc1ccc(-c2cn3c(ccc4[nH]ccc43)n2)cc1", "note": "[compound of formula (2), 2-(4-Chlorophenyl)-6H-imidazo[1,2-a]pyrrolo[2,3-e]pyridine]", "values": [{"measurement": "IC50", "setting": "hNur77", "value": 300, "unit": "nM"}, {"measurement": "EC50", "setting": "Nurr1", "value": 0.03, "unit": "nM"}]}, {"compound": "Clc1ccc(-c2nc3ccc4[nH]ccc4n3c2Cl)cc1", "note": "[compound of formula (1), 1-Chloro-2-(4-chlorophenyl)-6H-imidazo[1,2-a]pyrrolo[2,3-e]pyridine]", "values": [{"measurement": "melting point", "value": 252, "unit": "°C"}, {"measurement": "IC50", "setting": "hNur77", "value": 10000, "unit": "nM"}, {"measurement": "EC50", "setting": "Nurr1", "value": 0.2, "unit": "nM"}]}]}
